According to US20210108198A1, “APPLICATION OF COMPOUND OR TRADITIONAL CHINESE MEDICINE EXTRACT IN PREPARATION OF NUCLEIC ACID DELIVERY AGENT AND RELATED PRODUCTS THEREOF” (INSTITUTE OF BASIC MEDICAL SCIENCES CHINESE ACADEMY OF …, priority 2017, published 2021):
Entries after “also recorded” stand apart in the source; their conditions may differ.

Assays:
A549 cells [1] = assay: Confocal fluorescence microscopy of nucleic acid delivered by lipid in cells; format: cell-based, human; conditions: 4 μl lipid, boiling method; 6 hours of co-incubation
Procedure: Experimental materials: A549 cells (purchased from the Cell Center of the Chinese Academy of Medical Sciences), PGY-sRNA-6-Cy3 (purchased from Ribobio Biotechnology Co., Ltd.), lipid No. 41, Zeiss LSM780 (purchased from Zeiss, Germany), Alexa Fluor® 488 phalloidin (purchased from Invitrogen, USA), DAPI (purchased from Invitrogen, USA), paraformaldehyde (purchased from sigma, USA).
(§1) Experimental methods: PGY-sRNA-6-FAM was dissolved in 100 μl water, mixed with 4 μl lipid, and prepared by the boiling method. Then the mixture was dropped into A549 cells, and after 6 hours of co-incubation, the samples were washed three times with PBS, fixed with 4% paraformaldehyde, washed three times with PBS, stained with Alexa Fluor® 488 phalloidin for 30 min, washed 3 times with PBS, and stained with DAPI for 5 min, washed with PBS, and then sealed.
as §1, with “method:” for “methods:”, “water, and” for “water,”, “by” for “by the”, “Then,” for “Then”, “PBS washed,” for “washed with PBS,”

MRC-5 cell = assay: RT-qPCR detection of nucleic acid delivered by lipid into MRC-5 cells; format: cell-based; conditions: RNA 100 nM
Procedure: 3.1 NCI-N87 cell (gastric cancer cell), MRC-5 cell (lung fibroblast), A549 cell (lung cancer cell) were cultured to logarithmic growth phase, and then plated to a six-well plate at cell density of 1×10^6/2 mL medium/well; MRC-5 cell was cultured in Eagle's MEM medium (MEM, Gibco); A549 cell was cultured in Ham's F-12 medium (HyClone); NCI-N87 cell was cultured in RPMI-1640 medium (HyClone); followed by incubation overnight at 37° C., and the follow-up experiments were performed after the cells were attached to the walls.
3.3 After co-incubation with the small RNA for 3 hours, the cells were washed 2-3 times with PBS. The cells were harvested with TRIzol lysis buffer, and the total RNA was extracted. The abundance of small RNA that entered cells was detected by RT-qPCR, and the localization of RNA was detected by fluorescence in situ hybridization; protocols of each detection method were as follows:
3.3.2 RT-qPCR Detection of Small RNA (SYBR Green Dye Method)
The stem-loop primer used in the reverse transcription process was synthesized by Beijing Tsingke Biotechnology Co., Ltd. (U6 RT primer: […] ATG (SEQ ID NO: 21); HJT-sRNA-m7 RT stem-loop primer: […] AA (SEQ ID NO: 22)).
Both the forward and reverse primers of the amplification reaction were designed and synthesized by Beijing Tsingke Biotechnology Co., Ltd. (U6 F Primer: […] (SEQ ID NO: 23), U6 R Primer: […] (SEQ ID NO: 24), HJT-sRNA-m7 F Primer: […] (SEQ ID NO: 25), HJT-sRNA-m7 R Primer: […] (SEQ ID NO: 26)).
3) The relative expression level was calculated by 2-ΔCt method.
3.1.3 After co-incubation with cells for 12-24 hours, the cells were washed twice with PBS. The cells were harvested with TRIzol lysis buffer (purchased from Sigma-Aldrich), and total RNA was extracted.

A549 cells [2] = assay: Flow cytometry detection of the efficiency of nucleic acid delivery by lipid; format: cell-based, human; conditions: PGY-sRNA-6-FAM, boiling method
Procedure: Experimental materials: A549 cells (purchased from the Cell Center of the Chinese Academy of Medical Sciences), FAM-sRNA (purchased from Ribobio Biotechnology Co., Ltd.), lipid No. 41, Accuri® C6 instrument (purchased from BD, USA).
Experimental methods: PGY-sRNA-6-FAM was dissolved in 100 μl water, mixed with 4 μl lipid, and prepared by boiling method. Then the mixture was dropped into A549 cells, and after 6 hours of co-incubation, the samples were collected for detection as follows: firstly wash three times with PBS, then digest with trypsin for 3 minutes and remove trypsin, wash with PBS again and then blow down the cells. The detection was performed using Accuri® C6 instrument.
Experimental Method: PGY-sRNA-6-FAM was dissolved in 100 μl water, and mixed with 4 μl lipid, and prepared into lipid-sRNA mixture by boiling method. Then, the mixture was dropped into A549 cells, and after 6 hours of co-incubation, the samples were collected and washed three times with PBS, then digested with trypsin into single cells, washed with re-suspended with PBS and then blown down for Accuri® C6 instrument detection.
Experimental Method: FAM-sRNA was dissolved in 100 μl water, and mixed with 4 μl lipid, prepared by boiling method. Then, the lipid-sRNA mixture was dropped into A549 cells, and after 6 hours of co-incubation, the samples were collected and washed three times with PBS, then digested into single cells with trypsin, re-suspended with PBS and then blown down for Accuri® C6 instrument detection.

[3] = In vivo delivery of single-stranded sRNA by single lipid via gavage (blood, stomach, small intestine, liver); design: species or system C57 mice; conditions: 10 μl lipid, heating method
Source text: Tissues sampled: live/stomach/small intestine.

A549 cell = assay: RT-qPCR detection of nucleic acid delivered by lipid into A549 cells; format: cell-based, human; conditions: RNA 100 nM; for delivery of double-stranded HJT-sRNA-m7 by single lipid (real-time PCR): 12 hours
[4] = boiling (heating) method, 12 hours (No. 37: 3 hours)
[5] = 4 μl lipid, 6 hours of co-incubation

CCCCCCCCCCCCCCCCCCC[C@@H](O)[C@@H](N)CO [No. 41, Sphinganine (d22:0)]
entry of PGY-sRNA-6-Cy3 observed under the confocal microscopy (A549 cells [1]): could effectively deliver double-stranded nucleic acid into A549 cells | delivery of double-stranded HJT-sRNA-m7 by single lipid (real-time PCR) (MRC-5 cell; boiling (heating) method): delivered HJT-sRNA-m7 double-stranded RNA into MRC-5 cells | delivery of single-stranded HJT-sRNA-m7 by single lipid (real-time PCR) (MRC-5 cell; [4]): delivered HJT-sRNA-m7 single-stranded RNA into A549 and MRC-5 cells | delivery of double-stranded HJT-sRNA-m7 by single lipid (real-time PCR) (MRC-5 cell; reverse evaporation method): delivered HJT-sRNA-m7 double-stranded RNA into MRC-5 cells; also recorded: significantly higher than that of RNAiMAX | efficiency in delivering PGY-sRNA-6 double-stranded RNA (flow cytometry) (A549 cells [2]; [5]): 96.7% | efficiency in delivering PGY-sRNA-6 single-stranded RNA (flow cytometry) (A549 cells [2]; [5]): 94.1% | efficiency of nucleic acid delivery by flow cytometry, in words (A549 cells [2]; 6 hours): could efficiently deliver single-stranded and double-stranded nucleic acids into A549 cells | entry of single-stranded small RNA into mouse blood (RT-qPCR) ([3]; 1 nmol each sRNA (PGY-sRNA-23/-26/-32), 6 hours or 12 hours after administration): could promote the entry of small RNA into the blood, protecting it from degradation in the blood; also recorded: could effectively deliver sRNA single-stranded nucleic acid into the mouse blood via oral administration to protect sRNA from degradation; also recorded: the delivery effect was better than POPC and Lipofectamine RNAiMAX | entry of single-stranded small RNA into mouse stomach (RT-qPCR) ([3]; 1 nmol each sRNA, FIG. 109): could promote the entry of small RNA into the stomach cells, protecting it from degradation in the stomach; also recorded: could effectively deliver sRNA single-stranded nucleic acid into the mouse stomach via oral administration to protect sRNA from degradation | entry of single-stranded small RNA into mouse small intestine (RT-qPCR) ([3]; 1 nmol each sRNA, FIG. 110): could promote the entry of small RNA into small intestinal cells, protecting it from degradation in the small intestine; also recorded: could effectively deliver sRNA single-stranded nucleic acid into the mouse small intestine via oral administration to protect sRNA from degradation | entry of single-stranded small RNA into mouse liver (RT-qPCR) ([3]; 1 nmol each sRNA, FIG. 111): could promote the entry of small RNA into the liver, protecting it from degradation in the liver; also recorded: could effectively deliver sRNA single-stranded nucleic acid into the mouse liver via oral administration to protect sRNA from degradation | delivery of double-stranded HJT-sRNA-m7 by single lipid (real-time PCR) (A549 cell; boiling (heating) method, 2.5 μL single lipid): delivered HJT-sRNA-m7 double-stranded RNA into A549 cells; also recorded: about twice that of RNAiMAX | delivery of single-stranded HJT-sRNA-m7 by single lipid (real-time PCR) (A549 cell; [4]): delivered HJT-sRNA-m7 single-stranded RNA into A549 and MRC-5 cells | delivery of double-stranded HJT-sRNA-m7 by single lipid (real-time PCR) (A549 cell; reverse evaporation method): delivered HJT-sRNA-m7 double-stranded RNA into A549 cells; also recorded: significantly higher than that of RNAiMAX
